Measured values: ChEMBL document CHEMBL3124816, “Preparation and optimization of new 4-(2-(indolin-1-yl)-2-oxoethyl)-2-morpholinothiazole-5-carboxylic acid and amide derivatives as potent and selective PI3Kβ inhibitors” (Bioorg Med Chem Lett, 2014)

Tests used:
[1] = Apparent permeability of the compound in human Caco2 cells; type: ADME, cell-based; conditions: Caco-2
[2] = Terminal elimination half life in Sprague-Dawley rat at 3 mg/kg, iv; type: ADME, organism-based; parameters: dose 3 mg/kg, route intravenous; conditions: in vivo, read-out: beta t1/2 (converted)
[3] = AUC in Sprague-Dawley rat at 10 mg/kg, po; type: ADME, organism-based; parameters: dose 10 mg/kg, route oral; conditions: plasma
[4] = Plasma concentration in SCID mouse harboring human PTEN-deficient PC3 cells at 150 mg/kg, po after 1 hr; type: ADME, organism-based, PC-3; parameters: dose 150 mg/kg, route oral
[5] = Volume of distribution at steady state in Sprague-Dawley rat at 3 mg/kg, iv; type: ADME, organism-based; parameters: dose 3 mg/kg, route intravenous; conditions: in vivo, read-out: Vdss
[6] = biological target: T1, Phosphatidylinositol 4,5-bisphosphate 3-kinase catalytic subunit beta isoform (Homo sapiens, UniProt P42338); experiment: Inhibition of PI3Kbeta in human PTEN-deficient PC3 cells assessed as Akt phosphorylation at S473; type: cell-based, PC-3
[7] = biological target: T1, Phosphatidylinositol 4,5-bisphosphate 3-kinase catalytic subunit beta isoform; experiment: Inhibition of human PI3Kbeta after 15 mins
[8] = Plasma concentration in SCID mouse harboring human PTEN-deficient PC3 cells at 150 mg/kg, po after 7 hrs; type: ADME, organism-based, PC-3; parameters: dose 150 mg/kg, route oral
[9] = Clearance in Sprague-Dawley rat at 3 mg/kg, iv; type: ADME, organism-based; parameters: dose 3 mg/kg, route intravenous; conditions: in vivo
[10] = biological target: Phosphatidylinositol 4,5-bisphosphate 3-kinase catalytic subunit alpha isoform (Homo sapiens, UniProt P42336); experiment: Inhibition of human PI3Kalpha after 15 mins
[11] = Oral bioavailability in Sprague-Dawley rat at 10 mg/kg; type: ADME, organism-based; conditions: in vivo
[12] = Drug metabolism in rat liver microsomes assessed as compound lability; type: ADME; conditions: read-out: Drug metabolism
[13] = Thermodynamic solubility of the compound in 50 mM Phosphate buffer at pH 7.4 after 16 hrs by HPLC analysis; type: physicochemical; conditions: buffer, pH 7.4, 16 h; 16 h
[14] = biological target: Phosphatidylinositol 4,5-bisphosphate 3-kinase catalytic subunit gamma isoform (Homo sapiens, UniProt P48736); experiment: Inhibition of human PI3Kgamma after 15 mins
[15] = Cmax in Sprague-Dawley rat at 10 mg/kg, po; type: ADME, organism-based; parameters: dose 10 mg/kg, route oral; conditions: in vivo
[16] = Plasma concentration in SCID mouse harboring human PTEN-deficient PC3 cells at 150 mg/kg, po after 16 hrs; type: ADME, organism-based, PC-3; parameters: dose 150 mg/kg, route oral
[17] = Plasma protein binding in mouse; type: ADME, organism-based; conditions: read-out: PPB (converted)
[18] = Tmax in Sprague-Dawley rat at 10 mg/kg, po; type: ADME, organism-based; parameters: dose 10 mg/kg, route oral; conditions: in vivo
[19] = Drug metabolism in mouse liver microsomes assessed as compound lability; type: ADME, Microsome; conditions: microsomes
[20] = biological target: T2, Phosphatidylinositol 4,5-bisphosphate 3-kinase catalytic subunit delta isoform (Homo sapiens, UniProt O00329); experiment: Inhibition of human PI3Kdelta after 15 mins
T2 sequence (O00329 whole entry): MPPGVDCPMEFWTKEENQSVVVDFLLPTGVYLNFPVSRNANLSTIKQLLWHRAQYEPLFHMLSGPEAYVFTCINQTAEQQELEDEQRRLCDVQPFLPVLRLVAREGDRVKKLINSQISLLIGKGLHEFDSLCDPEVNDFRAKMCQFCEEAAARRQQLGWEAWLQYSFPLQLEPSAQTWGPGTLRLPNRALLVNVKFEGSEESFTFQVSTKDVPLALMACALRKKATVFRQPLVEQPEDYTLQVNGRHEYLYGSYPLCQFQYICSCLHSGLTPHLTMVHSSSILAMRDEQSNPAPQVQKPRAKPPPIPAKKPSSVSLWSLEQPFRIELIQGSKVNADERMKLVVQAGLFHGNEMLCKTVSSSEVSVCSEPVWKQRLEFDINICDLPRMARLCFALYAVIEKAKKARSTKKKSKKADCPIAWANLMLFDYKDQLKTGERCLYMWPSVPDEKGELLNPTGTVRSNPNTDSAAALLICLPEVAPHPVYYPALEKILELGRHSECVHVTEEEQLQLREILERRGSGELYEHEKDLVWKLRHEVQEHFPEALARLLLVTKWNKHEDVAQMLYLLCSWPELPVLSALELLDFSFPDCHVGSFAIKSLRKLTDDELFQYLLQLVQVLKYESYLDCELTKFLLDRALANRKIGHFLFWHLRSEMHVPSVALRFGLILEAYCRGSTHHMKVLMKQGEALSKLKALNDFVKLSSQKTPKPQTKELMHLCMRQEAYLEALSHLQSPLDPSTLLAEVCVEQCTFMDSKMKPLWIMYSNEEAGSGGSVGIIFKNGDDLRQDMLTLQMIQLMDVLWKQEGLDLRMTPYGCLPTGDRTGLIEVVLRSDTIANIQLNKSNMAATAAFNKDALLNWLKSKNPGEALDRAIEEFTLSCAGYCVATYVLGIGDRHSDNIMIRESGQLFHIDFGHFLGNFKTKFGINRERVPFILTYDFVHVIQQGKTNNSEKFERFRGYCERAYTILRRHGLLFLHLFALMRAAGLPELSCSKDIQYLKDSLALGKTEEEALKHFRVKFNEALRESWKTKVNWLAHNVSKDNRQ

[21] = Terminal elimination half life in Sprague-Dawley rat at 10 mg/kg, po; type: ADME, organism-based; parameters: dose 10 mg/kg, route oral; conditions: in vivo, read-out: beta t1/2 (converted)

T1 sequence (P42338 whole entry, canonical isoform): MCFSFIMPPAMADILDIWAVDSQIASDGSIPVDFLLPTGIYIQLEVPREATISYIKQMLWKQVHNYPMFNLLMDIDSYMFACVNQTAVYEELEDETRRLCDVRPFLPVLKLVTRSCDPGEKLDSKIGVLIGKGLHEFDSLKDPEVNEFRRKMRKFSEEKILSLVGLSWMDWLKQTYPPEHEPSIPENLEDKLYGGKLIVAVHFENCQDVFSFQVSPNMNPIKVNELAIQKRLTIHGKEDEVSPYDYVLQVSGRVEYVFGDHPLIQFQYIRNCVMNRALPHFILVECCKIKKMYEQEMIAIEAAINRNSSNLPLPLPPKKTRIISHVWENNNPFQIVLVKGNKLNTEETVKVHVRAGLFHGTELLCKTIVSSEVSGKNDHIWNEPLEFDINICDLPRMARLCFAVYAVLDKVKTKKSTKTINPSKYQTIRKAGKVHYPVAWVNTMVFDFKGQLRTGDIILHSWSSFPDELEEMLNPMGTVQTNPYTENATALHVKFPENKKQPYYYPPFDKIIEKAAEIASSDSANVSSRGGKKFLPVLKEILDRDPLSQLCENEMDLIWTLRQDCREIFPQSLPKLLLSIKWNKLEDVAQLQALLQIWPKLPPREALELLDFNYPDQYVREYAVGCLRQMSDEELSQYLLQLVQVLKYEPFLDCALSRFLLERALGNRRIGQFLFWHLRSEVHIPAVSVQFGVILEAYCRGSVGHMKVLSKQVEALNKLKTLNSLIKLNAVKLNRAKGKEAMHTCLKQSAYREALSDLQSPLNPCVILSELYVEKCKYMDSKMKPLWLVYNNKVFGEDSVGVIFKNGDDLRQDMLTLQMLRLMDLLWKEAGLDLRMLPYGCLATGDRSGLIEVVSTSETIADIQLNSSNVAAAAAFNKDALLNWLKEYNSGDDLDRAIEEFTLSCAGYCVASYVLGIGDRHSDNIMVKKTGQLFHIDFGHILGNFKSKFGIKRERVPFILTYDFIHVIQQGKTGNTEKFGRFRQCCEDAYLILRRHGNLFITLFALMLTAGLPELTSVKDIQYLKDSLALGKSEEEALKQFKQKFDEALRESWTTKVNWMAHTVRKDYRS
Phosphatidylinositol 4,5-bisphosphate 3-kinase catalytic subunit alpha isoform, sequence (P42336 whole entry, canonical isoform): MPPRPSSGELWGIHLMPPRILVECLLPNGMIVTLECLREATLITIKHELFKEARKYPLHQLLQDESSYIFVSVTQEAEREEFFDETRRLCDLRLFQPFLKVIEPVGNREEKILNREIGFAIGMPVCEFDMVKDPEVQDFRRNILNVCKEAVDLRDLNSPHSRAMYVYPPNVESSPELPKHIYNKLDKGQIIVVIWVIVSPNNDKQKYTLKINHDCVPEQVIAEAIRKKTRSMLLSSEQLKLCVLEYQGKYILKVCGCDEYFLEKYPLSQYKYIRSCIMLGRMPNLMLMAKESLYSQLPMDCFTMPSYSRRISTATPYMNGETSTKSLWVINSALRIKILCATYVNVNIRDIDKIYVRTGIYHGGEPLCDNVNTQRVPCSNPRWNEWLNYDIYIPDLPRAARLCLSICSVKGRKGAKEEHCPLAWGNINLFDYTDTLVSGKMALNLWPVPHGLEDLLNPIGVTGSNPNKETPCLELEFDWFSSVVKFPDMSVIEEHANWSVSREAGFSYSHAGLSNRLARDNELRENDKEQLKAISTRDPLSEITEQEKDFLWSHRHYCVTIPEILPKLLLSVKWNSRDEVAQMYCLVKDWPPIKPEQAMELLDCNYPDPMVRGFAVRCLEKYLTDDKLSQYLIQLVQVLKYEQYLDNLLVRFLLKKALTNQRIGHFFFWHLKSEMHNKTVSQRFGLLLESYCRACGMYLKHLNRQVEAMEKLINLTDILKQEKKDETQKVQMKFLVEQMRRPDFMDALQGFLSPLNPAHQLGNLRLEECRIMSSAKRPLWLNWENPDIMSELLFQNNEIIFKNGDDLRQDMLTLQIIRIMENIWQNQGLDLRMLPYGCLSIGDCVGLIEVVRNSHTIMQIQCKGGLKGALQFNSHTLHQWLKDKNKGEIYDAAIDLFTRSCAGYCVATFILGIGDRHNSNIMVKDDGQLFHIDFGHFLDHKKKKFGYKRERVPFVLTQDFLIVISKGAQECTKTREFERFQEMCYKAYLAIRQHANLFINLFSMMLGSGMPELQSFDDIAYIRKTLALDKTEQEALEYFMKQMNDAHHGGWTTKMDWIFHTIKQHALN
Phosphatidylinositol 4,5-bisphosphate 3-kinase catalytic subunit gamma isoform, sequence (P48736 whole entry, canonical isoform): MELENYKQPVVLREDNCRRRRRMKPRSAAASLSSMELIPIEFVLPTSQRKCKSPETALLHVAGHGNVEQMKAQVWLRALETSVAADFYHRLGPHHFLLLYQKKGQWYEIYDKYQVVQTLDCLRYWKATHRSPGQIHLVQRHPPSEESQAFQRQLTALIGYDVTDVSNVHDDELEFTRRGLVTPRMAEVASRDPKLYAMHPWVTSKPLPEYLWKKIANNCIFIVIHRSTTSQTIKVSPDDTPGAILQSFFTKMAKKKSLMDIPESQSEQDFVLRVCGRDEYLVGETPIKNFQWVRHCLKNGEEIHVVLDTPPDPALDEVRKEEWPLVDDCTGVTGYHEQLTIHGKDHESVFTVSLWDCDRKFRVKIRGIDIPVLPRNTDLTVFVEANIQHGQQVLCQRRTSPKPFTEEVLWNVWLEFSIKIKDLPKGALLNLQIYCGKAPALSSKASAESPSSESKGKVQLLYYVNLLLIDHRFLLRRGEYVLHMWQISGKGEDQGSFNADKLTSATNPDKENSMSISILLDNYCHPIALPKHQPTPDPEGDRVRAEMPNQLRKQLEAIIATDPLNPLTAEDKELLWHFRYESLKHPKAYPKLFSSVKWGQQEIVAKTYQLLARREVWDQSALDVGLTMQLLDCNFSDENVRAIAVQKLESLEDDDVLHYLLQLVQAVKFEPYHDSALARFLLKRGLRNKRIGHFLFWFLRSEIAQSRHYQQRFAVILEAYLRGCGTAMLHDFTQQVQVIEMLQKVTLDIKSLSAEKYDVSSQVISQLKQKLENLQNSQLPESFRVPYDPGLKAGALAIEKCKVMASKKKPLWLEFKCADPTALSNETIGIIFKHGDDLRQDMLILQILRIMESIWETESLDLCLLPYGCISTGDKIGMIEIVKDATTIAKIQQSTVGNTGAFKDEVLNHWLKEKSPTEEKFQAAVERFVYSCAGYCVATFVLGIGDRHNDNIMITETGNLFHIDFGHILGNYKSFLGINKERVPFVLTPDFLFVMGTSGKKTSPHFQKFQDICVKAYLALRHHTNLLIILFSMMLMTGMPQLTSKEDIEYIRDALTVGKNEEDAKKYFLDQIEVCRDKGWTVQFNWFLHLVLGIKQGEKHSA

Structure (SMILES): CC1Cc2c(Br)cccc2N1C(=O)Cc1nc(N2CCOCC2)sc1C(=O)O (single isomer, unassigned; enantiomer 1)
- Papp [1]: 0.5 ×10⁻⁶ cm/s
- half-life [2]: 3.8 h
- AUC [3]: 41000 ng·h/mL
- concentration at 1 h [4]: 181 µM
- Vd [5]: 0.65 L/kg
- IC50 [6]: 140 nM
- IC50 [7]: 10 nM
- concentration at 7 h [8]: 79 µM
- clearance [9]: 4.17 mL/min/kg
- IC50 [10]: 395 nM
- bioavailability [11]: 99%
- metabolised [12]: 7%
- Therm_solubility [13]: 3.795 mM
- IC50 [14]: 4350 nM
- Cmax [15]: 15100 ng/mL
- concentration at 16 h [16]: 3 µM
- fraction unbound [17]: 0.015
- Tmax [18]: 0.25 h
- Drug metabolism [19]: 17%
- IC50 [20]: 63 nM
- half-life [21]: 6.3 h
